Values quoted from earlier work as cited in patent publication US20210252031A1, “USE OF LACTULOSE IN THE TREATMENT OF AUTISM” (Curemark, LLC, priority 2006, published 2021).

solubility in water: very soluble in water
Compound: OC[C@H]1O[C@@H](O[C@@H]2[C@@H](CO)OC(O)(CO)[C@H]2O)[C@H](O)[C@@H](O)[C@H]1O (stereo partly drawn) [Lactulose, 4-O-beta-D-galactopyranosyl-D-fructofuranose]
